Assay results: ChEMBL document CHEMBL4840323, “Discovery of an Orally Bioavailable Small-Molecule Inhibitor for the β-Catenin/B-Cell Lymphoma 9 Protein-Protein Interaction” (J Med Chem, 2021)
Active and inactive are the calls of the source. The calls are words filed in the database; no cut-off is given here.

Key:
Mus musculus [1] = species: Mus musculus; conditions: dose 90.0 mg/kg, time 5.0 day
[2] = Half life in C57BL/6 mouse at 1 mg/kg, iv measured after 5 mins by LC-MS/MS analysis; assay type: ADME, organism-based; conditions: in vivo
[3] = Half life in C57BL/6 mouse at 20 mg/kg, po via gavage measured up to 24 hrs by LC-MS/MS analysis; assay type: ADME, organism-based; conditions: in vivo
MCF-10A [4] = assay: Induction of apoptosis in human MCF-10A cells assessed as early apoptotic cells at 40 uM measured after 72 hrs by annexinV-FITC/propidium iodide staining based flow cytometry (reference value: 28.9 %); assay type: cell-based
[5] = Intrinsic clearance in human liver microsomes at 1 uM measured up to 60 mins in presence of NADPH by LC-MS/SM analysis; assay type: ADME, Microsome
[6] = Half life in mouse liver microsomes at 1 uM measured up to 60 mins in presence of NADPH by LC-MS/SM analysis; assay type: ADME, Microsome; conditions: 1 h
MDA-MB-231 [7] = assay: Induction of apoptosis in human MDA-MB-231 cells assessed as late apoptotic cells at 20 uM measured after 72 hrs by annexinV-FITC/propidium iodide staining based flow cytometry (reference value: 8.8 %); assay type: functional
MDA-MB-468 [8] = assay: Inhibition of Wnt/beta-catenin transactivation signalling in Wnt3a stimulated human MDA-MB-468 cells assessed as relative activity at 12.5 uM measured after 24 hrs by TOPFlash reporter gene assay relative to control; assay type: cell-based; design: scale not given: the % may be the effect or the level left
[9] = Intrinsic clearance in mouse liver microsomes at 1 uM measured up to 60 mins in presence of NADPH by LC-MS/SM analysis; assay type: ADME, Microsome; conditions: 1 h
MDA-MB-468 [10] = assay: Inhibition of Wnt/beta-catenin transactivation signalling in Wnt3a stimulated human MDA-MB-468 cells assessed as relative activity at 25 uM measured after 24 hrs by TOPFlash reporter gene assay relative to control; assay type: cell-based; design: scale not given: the % may be the effect or the level left
MDA-MB-231 [11] = assay: Downregulation of HPRT mRNA expression in Wnt3a stimulated human MDA-MB-231 cells at 10 to 40 uM measured after 24 hrs by qRT-PCR analysis; conditions: dose 10-40 µM
[12] = Volume of distribution in C57BL/6 mouse at 1 mg/kg, iv measured after 5 mins by LC-MS/MS analysis; assay type: ADME, organism-based; conditions: in vivo
[13] = Cmax in C57BL/6 mouse at 20 mg/kg, po via gavage measured up to 24 hrs by LC-MS/MS analysis; assay type: ADME, organism-based; design: route oral, dose 20 mg/kg, time <=24; conditions: in vivo
[14] = Half life in human liver microsomes at 1 uM measured up to 60 mins in presence of NADPH by LC-MS/SM analysis; assay type: ADME, Microsome; conditions: 1 h
MDA-MB-231 [15] = assay: Induction of apoptosis in human MDA-MB-231 cells assessed as early apoptotic cells at 40 uM measured after 72 hrs by annexinV-FITC/propidium iodide staining based flow cytometry (reference value: 5.3 %); assay type: functional
MDA-MB-468 [16] = assay: Induction of apoptosis in human MDA-MB-468 cells assessed as early apoptotic cells at 10 uM measured after 72 hrs by annexinV-FITC/propidium iodide staining based flow cytometry (reference value: 28.9 %); assay type: functional
MDA-MB-231 [17] = assay: Antiproliferative activity against human MDA-MB-231 cells harboring empty pcDNA3.1 vector at 20 uM measured after 72 hrs by MTS assay; assay type: functional, cell-based
MDA-MB-231 [18] = assay: Antiinvasive activity against human MDA-MB-231 cells cultured as 3D-spheroids at 5 uM measured after 6 days by imaging analysis relative to control; assay type: functional; conditions: time 6 day
MDA-MB-468 [19] = assay: Inhibition of Wnt/beta-catenin transactivation signalling in Wnt3a stimulated human MDA-MB-468 cells assessed as relative activity at 6.25 uM measured after 24 hrs by TOPFlash reporter gene assay relative to control; assay type: cell-based; design: scale not given: the % may be the effect or the level left
SW480 [20] = assay: Inhibition of Wnt/beta-catenin transactivation signalling in human SW480 cells assessed as relative activity at 6.25 uM measured after 24 hrs by TOPFlash reporter gene assay relative to control; assay type: cell-based; design: scale not given: the % may be the effect or the level left
MDA-MB-468 [21] = assay: Induction of apoptosis in human MDA-MB-468 cells assessed as late apoptotic cells at 10 uM measured after 72 hrs by annexinV-FITC/propidium iodide staining based flow cytometry (reference value: 13.9 %); assay type: functional
[22] = Cmax in C57BL/6 mouse at 1 mg/kg, iv measured after 5 mins by LC-MS/MS analysis; assay type: ADME, organism-based; design: route intravenous, dose 1 mg/kg, time 5 min; conditions: in vivo
[23] = AUC in C57BL/6 mouse at 20 mg/kg, po via gavage measured up to 24 hrs by LC-MS/MS analysis; assay type: ADME, organism-based; design: route oral, dose 20 mg/kg, time <=24; conditions: in vivo
SW480 [24] = assay: Inhibition of Wnt/beta-catenin transactivation signalling in human SW480 cells assessed as relative activity at 1.56 uM measured after 24 hrs by TOPFlash reporter gene assay relative to control; assay type: cell-based; design: scale not given: the % may be the effect or the level left
[25] = Solubility of the compound in 0.9% NaCl at 2 mg/ml; assay type: physicochemical
[26] = Solubility of the compound in EtOH/saline (5/95) at 2 mg/ml; assay type: physicochemical; conditions: buffer
MDA-MB-231 [27] = assay: Induction of apoptosis in human MDA-MB-231 cells assessed as late apoptotic cells at 40 uM measured after 72 hrs by annexinV-FITC/propidium iodide staining based flow cytometry (reference value: 8.8 %); assay type: functional
MDA-MB-231 [28] = assay: Antiinvasive activity against human MDA-MB-231 cells cultured as 3D-spheroids at 40 uM measured after 6 days by imaging analysis relative to control; assay type: functional; conditions: time 6 day
MCF-10A [29] = assay: Induction of apoptosis in human MCF-10A cells assessed as late apoptotic cells at 10 uM measured after 72 hrs by annexinV-FITC/propidium iodide staining based flow cytometry (reference value: 13.9 %); assay type: cell-based
MDA-MB-468 [30] = assay: Induction of apoptosis in human MDA-MB-468 cells assessed as early apoptotic cells at 20 uM measured after 72 hrs by annexinV-FITC/propidium iodide staining based flow cytometry (reference value: 28.9 %); assay type: functional
[31] = Toxicity in SCID-Beige mouse orthotopically xenografted with patient-derived 4013 cells at 90 mg/kg, po via gavage for 5 days; assay type: organism-based; conditions: in vivo, 120 h, time 5 day
MDA-MB-468 [32] = assay: Antiproliferative activity against human MDA-MB-468 cells harboring empty pcDNA3.1 vector at 10 uM measured after 72 hrs by MTS assay; assay type: functional, cell-based
HCT-116 = assay: cells; conditions: Homo sapiens, HCT-116, 72 h
Description: Antiproliferative activity against human HCT-116 cells assessed as cell growth inhibition measured after 72 hrs by MTS assay

MDA-MB-468 [33] = assay: cells; conditions: Homo sapiens, MDA-MB-468, 72 h
Description: Antiproliferative activity against human MDA-MB-468 cells assessed as cell growth inhibition measured after 72 hrs by MTS assay

MCF-10A [34] = assay: Induction of apoptosis in human MCF-10A cells assessed as early apoptotic cells at 10 uM measured after 72 hrs by annexinV-FITC/propidium iodide staining based flow cytometry (reference value: 28.9 %); assay type: cell-based
MDA-MB-231 [35] = assay: Antiinvasive activity against human MDA-MB-231 cells cultured as 3D-spheroids at 10 uM measured after 6 days by imaging analysis relative to control; assay type: functional; conditions: time 6 day
Mus musculus [36] = species: Mus musculus; conditions: dose 90.0 mg/kg, time 5.0 day; remark: listed apart in the source
Mus musculus [37] = species: Mus musculus; conditions: dose 90.0 mg/kg, time 5.0 day; remark: listed apart in the source

t1/2 [2]: 211 min
t1/2 [3]: 184 min
CLint at 1 h, 1 µM [5]: 18 µL/min/mg
t1/2 [6]: 9.6 min
CLint [9]: 72 µL/min/mg
Vd [12]: 8 L/kg
Cmax [13]: 3210 nM
t1/2 [14]: 38.4 min
Cmax [22]: 790 nM
AUC [23]: 11.71 µM·h
solubility [25]: Soluble
solubility [26]: Soluble
IC50 (HCT-116): 76 µM
IC50 (MDA-MB-468 [33]): 9.6 µM
SMILES: CC(C)(Oc1cccc(N2CCC[C@@H](C(=O)N(Cc3ccc(-c4cn[nH]c4)cc3)C3CC3)C2)c1)C(=O)N1CCNCC1.Cl
inhibition (Mus musculus [1]): Active
Activity (MCF-10A [4]): 3.9%
Activity (MDA-MB-231 [7]): 23%
Activity (MDA-MB-468 [8]): 96%
Activity (MDA-MB-468 [10]): 89%
Activity (MDA-MB-231 [11]): inactive
Activity (MDA-MB-231 [15]): 53.1%
Activity (MDA-MB-468 [16]): 17.5%
Activity (MDA-MB-231 [17]): Active
Activity (MDA-MB-231 [18]): 76.3%
Activity (MDA-MB-468 [19]): 102%
Activity (SW480 [20]): 97%
Activity (MDA-MB-468 [21]): 17.6%
Activity (SW480 [24]): 95%
Activity (MDA-MB-231 [27]): 18.9%
Activity (MDA-MB-231 [28]): 10.9%
Activity (MCF-10A [29]): 12.3%
Activity (MDA-MB-468 [30]): 34.6%
Activity [31]: Toxic
Activity (MDA-MB-468 [32]): Active
Activity (MCF-10A [34]): 1.9%
Activity (MDA-MB-231 [35]): 47.5%
inhibition (Mus musculus [36]): Active
inhibition (Mus musculus [37]): Active
